Results from PubChem BioAssay (NCI).
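Five concentrations, 48 hours, 96-well plates. TGI marks complete inhibition of growth.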

Key:
Assay in all cases: NCI-60 cell line screen, 48 h
786-0 renal = tested on: 786-0 renal
A498 renal = tested on: A498 renal
A549 NSCLC = tested on: A549 NSCLC
ACHN renal = tested on: ACHN renal
BT-549 breast = tested on: BT-549 breast
CAKI-1 renal = tested on: CAKI-1 renal
CCRF-CEM leukemia = tested on: CCRF-CEM leukemia
COLO 205 colon = tested on: COLO 205 colon
DU-145 prostate = tested on: DU-145 prostate
EKVX NSCLC = tested on: EKVX NSCLC
HCC-2998 colon = tested on: HCC-2998 colon
HCT-116 colon = tested on: HCT-116 colon
HCT-15 colon = tested on: HCT-15 colon
HL-60(TB) leukemia = tested on: HL-60(TB) leukemia
HOP-62 NSCLC = tested on: HOP-62 NSCLC
HS 578T breast = tested on: HS 578T breast
HT29 colon = tested on: HT29 colon
IGROV1 ovarian = tested on: IGROV1 ovarian
K-562 leukemia = tested on: K-562 leukemia
KM12 colon = tested on: KM12 colon
LOX IMVI melanoma = tested on: LOX IMVI melanoma
M14 melanoma = tested on: M14 melanoma
MALME-3M melanoma = tested on: MALME-3M melanoma
MCF7 breast = tested on: MCF7 breast
MDA-MB-231 breast = tested on: MDA-MB-231 breast
MDA-MB-435 = tested on: MDA-MB-435
MDA-N = tested on: MDA-N
MOLT-4 leukemia = tested on: MOLT-4 leukemia
NCI-H23 lung = tested on: NCI-H23 lung
NCI-H460 lung = tested on: NCI-H460 lung
NCI-H522 lung = tested on: NCI-H522 lung
NCI/ADR-RES ovarian = tested on: NCI/ADR-RES ovarian
OVCAR-4 ovarian = tested on: OVCAR-4 ovarian
OVCAR-5 ovarian = tested on: OVCAR-5 ovarian
OVCAR-8 ovarian = tested on: OVCAR-8 ovarian
PC-3 prostate = tested on: PC-3 prostate
RPMI-8226 leukemia = tested on: RPMI-8226 leukemia
RXF 393 renal = tested on: RXF 393 renal
SF-268 CNS = tested on: SF-268 CNS
SF-295 CNS = tested on: SF-295 CNS
SF-539 CNS = tested on: SF-539 CNS
SK-MEL-2 melanoma = tested on: SK-MEL-2 melanoma
SK-MEL-28 melanoma = tested on: SK-MEL-28 melanoma
SK-MEL-5 melanoma = tested on: SK-MEL-5 melanoma
SK-OV-3 ovarian = tested on: SK-OV-3 ovarian
SN12C renal = tested on: SN12C renal
SNB-19 CNS = tested on: SNB-19 CNS
SNB-75 CNS = tested on: SNB-75 CNS
SR leukemia = tested on: SR leukemia
SW-620 colon = tested on: SW-620 colon
T-47D breast = tested on: T-47D breast
TK-10 renal = tested on: TK-10 renal
U251 CNS = tested on: U251 CNS
UACC-257 melanoma = tested on: UACC-257 melanoma
UACC-62 melanoma = tested on: UACC-62 melanoma
UO-31 renal = tested on: UO-31 renal
HOP-92 NSCLC = tested on: HOP-92 NSCLC
NCI-H226 lung = tested on: NCI-H226 lung
OVCAR-3 ovarian = tested on: OVCAR-3 ovarian

Compound: Cc1ccc(S(=O)c2sccc2C=O)cc1 (stereo unspecified)
- TGI (786-0 renal): > 100 µM
- TGI (A498 renal): > 100 µM
- TGI (A549 NSCLC): > 100 µM
- TGI (ACHN renal): > 100 µM
- TGI (BT-549 breast): 60.3 µM
- TGI (CAKI-1 renal): > 100 µM
- TGI (CCRF-CEM leukemia): 56 µM
- TGI (COLO 205 colon): > 100 µM
- TGI (DU-145 prostate): > 100 µM
- TGI (EKVX NSCLC): > 100 µM
- TGI (HCC-2998 colon): > 100 µM
- TGI (HCT-116 colon): 31 µM
- TGI (HCT-15 colon): 85.8 µM
- TGI (HL-60(TB) leukemia): 48.2 µM
- TGI (HOP-62 NSCLC): 68.1 µM
- TGI (HS 578T breast): 65.9 µM
- TGI (HT29 colon): 45 µM
- TGI (IGROV1 ovarian): 74.3 µM
- TGI (K-562 leukemia): > 100 µM
- TGI (KM12 colon): 70.3 µM
- TGI (LOX IMVI melanoma): 32.4 µM
- TGI (M14 melanoma): 58.1 µM
- TGI (MALME-3M melanoma): > 100 µM
- TGI (MCF7 breast): 43.8 µM
- TGI (MDA-MB-231 breast): > 100 µM
- TGI (MDA-MB-435): 62.6 µM
- TGI (MDA-N): > 100 µM
- TGI (MOLT-4 leukemia): 59.1 µM
- TGI (NCI-H23 lung): > 100 µM
- TGI (NCI-H460 lung): 50.4 µM
- TGI (NCI-H522 lung): > 100 µM
- TGI (NCI/ADR-RES ovarian): 67.2 µM
- TGI (OVCAR-4 ovarian): 75 µM
- TGI (OVCAR-5 ovarian): > 100 µM
- TGI (OVCAR-8 ovarian): 56.5 µM
- TGI (PC-3 prostate): > 100 µM
- TGI (RPMI-8226 leukemia): 76.2 µM
- TGI (RXF 393 renal): > 100 µM
- TGI (SF-268 CNS): 82.4 µM
- TGI (SF-295 CNS): 71.3 µM
- TGI (SF-539 CNS): 41.7 µM
- TGI (SK-MEL-2 melanoma): > 100 µM
- TGI (SK-MEL-28 melanoma): 92.4 µM
- TGI (SK-MEL-5 melanoma): > 100 µM
- TGI (SK-OV-3 ovarian): > 100 µM
- TGI (SN12C renal): 63.5 µM
- TGI (SNB-19 CNS): > 100 µM
- TGI (SNB-75 CNS): 94.9 µM
- TGI (SR leukemia): 84.2 µM
- TGI (SW-620 colon): 55.9 µM
- TGI (T-47D breast): > 100 µM
- TGI (TK-10 renal): > 100 µM
- TGI (U251 CNS): 34.6 µM
- TGI (UACC-257 melanoma): > 100 µM
- TGI (UACC-62 melanoma): 55.3 µM
- TGI (UO-31 renal): > 100 µM

Compound: CCOC(=O)c1[nH]cc(C)c1-c1ccc2c(-c3ccccc3)nc3ccccc3n12
- TGI (786-0 renal): 12.8 µM
- TGI (A498 renal): 9.98 µM
- TGI (A549 NSCLC): 18.5 µM
- TGI (ACHN renal): 15.5 µM
- TGI (BT-549 breast): 17.4 µM
- TGI (CAKI-1 renal): 17.8 µM
- TGI (CCRF-CEM leukemia): 13 µM
- TGI (COLO 205 colon): 14.2 µM
- TGI (DU-145 prostate): 13.4 µM
- TGI (EKVX NSCLC): 18.2 µM
- TGI (HCC-2998 colon): 9.97 µM
- TGI (HCT-116 colon): 12.5 µM
- TGI (HCT-15 colon): 13.7 µM
- TGI (HOP-62 NSCLC): 29.9 µM
- TGI (HOP-92 NSCLC): 14 µM
- TGI (HS 578T breast): 6.5 µM
- TGI (HT29 colon): 11.9 µM
- TGI (IGROV1 ovarian): 16.1 µM
- TGI (K-562 leukemia): 9.13 µM
- TGI (KM12 colon): 13.3 µM
- TGI (LOX IMVI melanoma): 12.3 µM
- TGI (M14 melanoma): 27.5 µM
- TGI (MCF7 breast): 14.3 µM
- TGI (MDA-MB-231 breast): 12.8 µM
- TGI (MDA-MB-435): 11.2 µM
- TGI (MDA-N): 14.1 µM
- TGI (MOLT-4 leukemia): 9.25 µM
- TGI (NCI-H226 lung): 20.1 µM
- TGI (NCI-H23 lung): 23.3 µM
- TGI (NCI-H460 lung): 12 µM
- TGI (NCI-H522 lung): 4.79 µM
- TGI (NCI/ADR-RES ovarian): 10.3 µM
- TGI (OVCAR-3 ovarian): 18.5 µM
- TGI (OVCAR-4 ovarian): 16.1 µM
- TGI (OVCAR-5 ovarian): 64.5 µM
- TGI (OVCAR-8 ovarian): 16.7 µM
- TGI (PC-3 prostate): 12.8 µM
- TGI (RXF 393 renal): 7.22 µM
- TGI (SF-268 CNS): 17.1 µM
- TGI (SF-295 CNS): 13.6 µM
- TGI (SF-539 CNS): 9.04 µM
- TGI (SK-MEL-2 melanoma): 16.8 µM
- TGI (SK-MEL-28 melanoma): 14.3 µM
- TGI (SK-MEL-5 melanoma): 6.29 µM
- TGI (SK-OV-3 ovarian): 23.5 µM
- TGI (SN12C renal): 15.2 µM
- TGI (SNB-75 CNS): 5.87 µM
- TGI (SR leukemia): 5.34 µM
- TGI (SW-620 colon): 16.5 µM
- TGI (T-47D breast): 18.4 µM
- TGI (TK-10 renal): 15.2 µM
- TGI (U251 CNS): 11.8 µM
- TGI (UACC-257 melanoma): 24.7 µM
- TGI (UACC-62 melanoma): 10.8 µM
- TGI (UO-31 renal): 14.5 µM
